Assay results taken from patent US10106627B2, “Process for the preparation of polymeric biosurfactants” (priority 2014, dated 2018).

Legend:
[1] = DPPH free radical scavenging assay (cell free); type: biochemical; details: 35° C., 30 min
Protocol: (§1) The antioxidant activity of Microsan from Microbacterium sp. strain BS-2 and Brevisan from Brevibacillus sp. strain BS-207 in cell free system was measured by its inhibitory activity on the generation of DPPH free radicals, superoxide anions (O^2−), lipid peroxidation and erythrocyte hemolysis. The DPPH free radical scavenging assay was performed using 2,2-diphenyl-1-picrylhydrazyl (DPPH) free radical scavenging method [Ara. N. and Hasan, N. (2009) Res. J. Med. Medical Sci. 4, 107-110]. Different concentrations of Microsan and Brevisan were mixed individually with 150 μl of 160 μM methanolic solution of DPPH and incubated at 35° C. for 30 min in dark. The effective concentration (EC50) was calculated by measuring the absorbance of the samples at 517 nm. The superoxide anion scavenging was measured using phenazine methosulfate-nicotinamide adenine dinucleotide (PMS/NADH) method as previously described [Liu, F., Ooi, V. E. and Chang, S. T. (1997) Life Sci. 60, 763-771]. The lipid peroxidation assay was performed using the previously described method [Zhang, Q., Yu, P., Li, Z., Zhang, H., Xu, Z. and Li, P. (2003) J. Appl. Phycol. 15, 305-310] which is based on measuring the lipid peroxide decomposed product malondialdehyde (MDA). […] Samples were incubated at 37° C. for 30 min and the absorbance was measured at 540 nm. […]

[2] = tested on: cyclooxygenase-2 (COX-2) in RAW 264.7 cells; assay: LPS-induced COX-2 immunoblot in RAW 264.7 cells; type: cell-based, mouse; details: 10 and 50 μg ml^−1, 24 h, LPS 100 ng ml^−1
Protocol: In independent experiments, RAW-264.7 cells were treated with Brevisan, Microsan and M-EPS-Au-NP (10 and 50 μg ml^−1 each) and then stimulated with 100 ng ml^−1 of LPS. After 24 h, the cells were washed with PBS and suspended in a lysis buffer containing 20 mM Tris, I mM EDTA, 150 mM NaCl, 1% NP-40, 0.5% sodium deoxycholate, 1 mM β-glycerophosphate, 1 mM sodium orthovanadate, 1 mM PMSF, 10 mg ml^−1 leupeptin, 20 mg ml^−1 aprotinin. The mixture was centrifuged at 10,000 rpm at 4° C. for 10 min to obtain the cell lysate. The protein content was determined by Bradford method [Bradford, M. M. (1976) Anal. Biochem. 72, 248-258]. An equal amount of total cell lysate was resolved on 12% SDS-PAGE gels and then transferred onto nitrocellulose membranes. Membranes were blocked with 5% w/v non-fat dry milk and then incubated with the primary antibodies for mouse COX-2 and β-actin with gentle shaking at 4° C. for 12 h and then incubated with peroxidase-conjugated secondary antibodies. The blots were developed using peroxidase substrates, TMB (3,3,5,5-tetramethylbenzidine)/H2O2.

[3] = tested on: Staphylococcus aureus MTCC 96; assay: Microtiter broth dilution MIC; type: cell-based; details: Staphylococcus aureus MTCC 96, 24 h, 35° C.
Protocol: (§2) The antimicrobial activity of Microsan and M-EPS-Au-NP was determined using the microtiter broth dilution method [Kumar, C. G. and Mamidyala, S. K. (2011) Coll. Surf B: Biointerf. 84, 462-466]. Different bacterial pathogens (10^7 cfu ml^−1 cells) were inoculated in 100 μl of Muller-Hinton broth. Different concentrations of Microsan, M-EPS-Au-NP and Brevisan were added to each strain and incubated for 24 h at 35° C. After incubation, 40 μl of p-iodonitrotetrazolium (INT, Sigma) dye (0.02%, 20 mg INT dissolved in 100 ml of 40% dimethyl formamide was added to each well and incubated for 2 h. The reduction of p-iodonitrotetrazolium was spectroscopically measured at 450 nm using TRIAD multimode reader (Dynex Technologies, Inc., Chantilly, Va.) to determine the minimum inhibitory concentration (MIC) values. Commercially available surfactin (CAS 24730-31-2; Sigma-Aldrich) and laminarin (CAS No 9008-22-4; Sigma-Aldrich) used as positive controls were run in parallel for comparison. The MIC values of Microsan and M-EPS-Au-NP observed against the tested bacterial strains are shown in Table 3.

[4] = tested on: Klebsiella planticola MTCC 530; assay: Microtiter broth dilution MIC; type: cell-based; details: Klebsiella planticola MTCC 530, 24 h, 35° C.
Protocol: as §2

[5] = tested on: Staphylococcus aureus MLS16 MTCC 2940; assay: Microtiter broth dilution MIC; type: cell-based; details: Staphylococcus aureus MLS16 MTCC 2940, 24 h, 35° C.
Protocol: as §2

[6] = tested on: Escherichia coli MTCC 739; assay: Microtiter broth dilution MIC; type: cell-based; details: Escherichia coli MTCC 739, 24 h, 35° C.
Protocol: as §2

[7] = tested on: Bacillus subtilis MTCC 121; assay: Microtiter broth dilution MIC; type: cell-based; details: Bacillus subtilis MTCC 121, 24 h, 35° C.
Protocol: as §2

[8] = tested on: Micrococcus luteus MTCC 2470; assay: Microtiter broth dilution MIC; type: cell-based; details: Micrococcus luteus MTCC 2470, 24 h, 35° C.
Protocol: as §2

[9] = tested on: Pseudomonas aeruginosa MTCC 2453; assay: Microtiter broth dilution MIC; type: cell-based; details: Pseudomonas aeruginosa MTCC 2453, 24 h, 35° C.
Protocol: as §2

[10] = Lipid peroxidation assay (malondialdehyde); type: biochemical; details: cell free
Protocol: as §1

## β-D-glucuronyl-(1-2)-D-mannosyl-(1-4)-D-glucose [Microsan]
[1]
  EC50 DPPH free radical scavenging: 40.78 µg/mL
[2]
  induction of COX-2 (Western blot): significantly inhibited
[3]
  Minimum inhibitory concentration (MIC): 18.75 µg/mL
[4]
  Minimum inhibitory concentration (MIC): 9.37 µg/mL
[5]
  Minimum inhibitory concentration (MIC): 4.68 µg/mL
[6]
  Minimum inhibitory concentration (MIC): >300 µg/mL
[7]
  Minimum inhibitory concentration (MIC): 4.68 µg/mL
[8]
  Minimum inhibitory concentration (MIC): >300 µg/mL
[9]
  Minimum inhibitory concentration (MIC): >300 µg/mL
[10]
  EC50 lipid peroxidation inhibition: 165.94 µg/mL
